According to ChEMBL document CHEMBL1149443, “Synthesis of the novel series of bispyridinium compounds bearing (E)-but-2-ene linker and evaluation of their reactivation activity against chlorpyrifos-inhibited acetylcholinesterase” (Bioorg Med Chem Lett, 2006):

Molecular target: T1, Acetylcholinesterase (Rattus norvegicus) (UniProt P37136)
T1 sequence (whole entry): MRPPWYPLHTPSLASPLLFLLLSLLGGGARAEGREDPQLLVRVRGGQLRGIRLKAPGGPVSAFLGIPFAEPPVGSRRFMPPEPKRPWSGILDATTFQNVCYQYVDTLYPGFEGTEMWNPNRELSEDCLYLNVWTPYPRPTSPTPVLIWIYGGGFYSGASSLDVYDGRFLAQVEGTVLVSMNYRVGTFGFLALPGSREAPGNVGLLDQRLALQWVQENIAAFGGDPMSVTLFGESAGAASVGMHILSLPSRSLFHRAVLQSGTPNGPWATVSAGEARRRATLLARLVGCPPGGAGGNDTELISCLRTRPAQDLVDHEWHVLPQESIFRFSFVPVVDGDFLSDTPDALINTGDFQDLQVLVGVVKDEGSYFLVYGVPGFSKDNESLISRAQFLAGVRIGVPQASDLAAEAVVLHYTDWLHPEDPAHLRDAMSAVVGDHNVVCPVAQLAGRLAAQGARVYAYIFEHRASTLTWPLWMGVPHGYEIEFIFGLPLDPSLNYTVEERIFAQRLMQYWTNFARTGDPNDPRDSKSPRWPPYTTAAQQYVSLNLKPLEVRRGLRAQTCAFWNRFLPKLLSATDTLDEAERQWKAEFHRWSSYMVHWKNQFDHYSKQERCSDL
Assay: Inhibitory activity against AChE from rat brain homogenate
Assay type: functional
Conditions: concentration not given here

Work on `CCOP(=S)(OCC)Oc1nc(Cl)c(Cl)cc1Cl` yielded an inhibition of 95%.
